Results: PubChem BioAssay (NCI)
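Five compound concentrations were applied to cells in 96-well plates for 48 hours; endpoints were derived by simple linear interpolation of the resulting dose-response curve. Abbreviation: GI50, concentration required for 50% inhibition of growth. TGI denotes the concentration required for complete inhibition of growth.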

How the values were obtained:
Assay in all cases: growth of human tumour cells (NCI), 48 h
[1] = system: A549 NSCLC
[2] = system: CCRF-CEM leukemia
[3] = system: HCT-15 colon
[4] = system: KM12 colon
[5] = system: NCI-H460 lung
[6] = system: PC-3 prostate
[7] = system: TK-10 renal
[8] = system: HL-60(TB) leukemia
[9] = system: K-562 leukemia
[10] = system: NCI-H23 lung

Row | Structure (SMILES) | GI50 [1] [µM] | TGI [1] [µM] | GI50 [2] [µM] | TGI [2] [µM] | GI50 [3] [µM] | TGI [3] [µM] | GI50 [4] [µM] | TGI [4] [µM] | GI50 [5] [µM] | TGI [5] [µM] | GI50 [6] [µM] | TGI [6] [µM] | GI50 [7] [µM] | TGI [7] [µM] | TGI [8] [µM] | TGI [9] [µM] | TGI [10] [µM] | GI50 [9] [µM] | GI50 [10] [µM]
1 | CC1(O)COCCCCOc2c(CN)cccc2NC(=O)c2nc(cnc2N)-c2ccc(cc2)S(=O)(=O)C(C)(C)C1 (stereo unspecified) | 0.29 | 2.34 | < 0.01 | 1.25 | 0.227 | 1.82 | 1.43 | 2.93 | < 0.01 | 1.94 | 1.18 | 2.54 | 1.64 | 3.34 |  |  |  |  | 
2 | Cc1c2cc[n+](C)cc2c(C)c2c1oc1ccccc12 |  | 36.5 |  | 45.9 |  | > 100 |  | 11.6 |  | 16.7 |  | 37.8 |  | 98.8 | > 73.2 | 34.9 | 11.2 |  | 
3 | COc1ccc2c(c1)/C(=C\c1c(Cl)n(-c3ccccc3)c3ccccc13)C(=O)N2 |  | 51.4 |  | 55.8 |  | 25.3 |  | 14.7 |  | 68.2 |  | > 100 |  | 84.4 | 10.7 | > 100 | 38.4 |  | 
4 | O=C(NC(Cc1ccc(I)cc1)C(=O)O)c1ccc(Cl)cc1 (stereo unspecified) |  | > 100 |  | > 100 |  | > 100 |  | > 100 |  | > 100 |  |  |  |  | > 100 | > 100 | > 100 |  | 
5 | CO/N=C(\C)c1cccc(Nc2nc3ccccc3c3occc23)c1 |  | 30 |  | 37.7 |  | 24.5 |  | 24.5 |  | 29.6 |  | 28.2 |  | 26 | 59.5 | 38.2 |  |  | 
6 | CC1C(=O)C(C)C(c2ccco2)N(N=O)C1c1ccco1 (stereo unspecified) |  | > 100 |  | > 100 |  | > 100 |  | > 100 |  | > 100 |  |  |  |  | > 100 | > 100 | > 100 |  | 
7 | CSc1ccc(/C=C2\N=C(c3ccccc3)N(/N=C3\C(=O)Nc4ccccc43)C2=O)cc1 |  | > 100 |  | > 100 |  | > 100 |  | > 100 |  | > 100 |  | > 100 |  | > 100 | > 100 | > 100 | > 100 |  | 
8 | COC(=O)c1ccccc1C1=C([N+](=O)[O-])C(c2cccc(Br)c2)C(C#N)=C(N)O1 (stereo unspecified) |  | > 100 |  | 61.8 |  | 41 |  |  |  | > 100 |  | > 100 |  | > 100 | 70.6 | 76.5 | 88.2 |  | 
9 | CCO[C@]12CCC[C@H]1[C@@H]1C(=O)c3ccccc3C(=O)C1=C(C)O2 |  | > 100 |  | > 100 |  | > 100 |  | > 100 |  | > 100 |  | > 100 |  | > 100 | > 100 | 94.7 | > 100 |  | 
10 | O=C1OC2(OC2c2ccc(Cl)cc2)c2ccccc21 (stereo unspecified) |  | > 100 |  | > 100 |  | > 100 |  | > 100 |  | > 100 |  |  |  | > 100 | > 100 | > 100 |  |  | 
11 | COc1cc([N+](=O)[O-])ccc1NC(=O)c1cccc([N+](=O)[O-])c1O |  | 66.6 |  | > 100 |  | > 100 |  | > 100 |  | > 100 |  |  |  |  | 55.4 | > 100 | 96.9 |  | 
12 | CCSc1nc(-c2cccs2)nc2ccc(I)cc12 |  | > 100 |  | > 100 |  | > 100 |  | > 100 |  | > 100 |  | > 100 |  | > 100 | > 100 | > 100 | > 100 |  | 
13 | CCCCCCCN(CCCCCCC)CC(O)c1cc2ccccc2c2cc(Br)ccc12 (stereo unspecified) |  |  |  | > 100 |  | > 100 |  |  |  | > 100 |  | > 100 |  | > 100 | > 100 | > 100 | > 100 |  | 
14 | CCc1ccc2c(c1)C(=O)c1c-2n(CCCN)c(=O)c2cc([N+](=O)[O-])ccc12 |  |  |  |  |  |  | 1.02 | 2.43 | 0.167 | 0.504 |  |  | 1.2 | 2.49 |  | 0.756 | 3.29 | 0.243 | 1.81
15 | Oc1ccc(-c2nc3cc(F)ccc3s2)cc1 |  | 40.6 |  | > 100 |  | 68.2 |  | 52.5 |  | 48.8 |  | 60 |  | 56 | > 100 | 72.3 | 83.8 |  | 
16 | c1ccc([P+](c2ccccc2)(c2ccccc2)c2ccc(-c3ccc([P+](c4ccccc4)(c4ccccc4)c4ccccc4)cc3)cc2)cc1 |  | 87.9 |  | > 100 |  | > 100 |  | > 100 |  | > 100 |  | 73.9 |  | > 100 | > 100 | > 100 | 55.3 |  | 
17 | CCOC(=O)Nc1cc2c(c(N)n1)N=C(c1ccc3ccccc3c1)CN2 |  | 23.8 |  | 0.0944 |  | > 100 |  | 3.94 |  | 3.33 |  | 24.7 |  | > 60.7 | > 100 | 10.3 |  |  | 
